Each structure is given as a SMILES string.

The values below come from US8906888B2, “Low-calcemic 16,23-diene 25-oxime analogs of 1α,25-dihydroxy vitamin D3” (Cytochroma Inc., priority 2005, dated 2014).

For assay [1], the system named is OVCAR-3 cells. The experiment in a line: [3H]-Thymidine proliferation assay with OVCAR-3 cells. The format is cell-based. As to conditions: ovarian cancer cells, 6 days, 3H-thymidine incorporation. How it is done:
1. Preparation of Suspension • When OVCAR-3 cells were ˜50% confluent, aspirated media. Washed cells with 1×PBS. Trypsinized with trypsin-EDTA, collected cells from the tissue culture flask, centrifuged (200×g, 5 min) and resuspended in media.
2. Cell Plating. • Counted the cells and adjusted the cell density to 11.4×10^3 to provide 2000 cells in 175 μl (for 1 well). Distributed cell suspension into a 96 well plates at 175 μl (2000 cells) per well. Incubated plate for 24 h at 37° C. in a humidified atmosphere plus 5% CO2. • Substrate addition. • Added 25 μl of compound (final concentration 10^−7 M, 5×10^−8 M 10^−8 M, 5×10^−9 M, 10^−9 M, 10^−10M or 0 M) into each designated well. Incubated plates for 6 days without changing media and drugs at 37° C. in a humidified atmosphere plus 5% CO2.
3. [^3H]-Thymidine incorporation • Added ^3H-thymidine at 0.02 μCi per well and incubated at 37° C. in a humidified atmosphere plus 5% CO2 for 6 h.
4. Plate Harvesting. • Aspirated all media and washed cells with 1×PBS. Trypsinized cells for 30 min at 37° C. in a humidified atmosphere plus 5% CO2. Harvested cells onto a 96 well filter plate (Millipore) using a Tomtec Cell Harvestor, according to manufacturers instructions.
5. Scintillation Counting. • Added 25 μl of scintillation fluid per well. Counted the plate using a scintillation counter. Results: Compounds (20R)-I(a), (20R)-I(c) and (20R)-I(e) all inhibited the proliferation of OVCAR-3 cells.
On the technique in general: Incorporation of labelled thymidine or its analogues reports DNA synthesis.

Assay [2] deals with T1, CYP27A1 (Homo sapiens, UniProt Q02318).
T1 sequence (Q02318 34-531): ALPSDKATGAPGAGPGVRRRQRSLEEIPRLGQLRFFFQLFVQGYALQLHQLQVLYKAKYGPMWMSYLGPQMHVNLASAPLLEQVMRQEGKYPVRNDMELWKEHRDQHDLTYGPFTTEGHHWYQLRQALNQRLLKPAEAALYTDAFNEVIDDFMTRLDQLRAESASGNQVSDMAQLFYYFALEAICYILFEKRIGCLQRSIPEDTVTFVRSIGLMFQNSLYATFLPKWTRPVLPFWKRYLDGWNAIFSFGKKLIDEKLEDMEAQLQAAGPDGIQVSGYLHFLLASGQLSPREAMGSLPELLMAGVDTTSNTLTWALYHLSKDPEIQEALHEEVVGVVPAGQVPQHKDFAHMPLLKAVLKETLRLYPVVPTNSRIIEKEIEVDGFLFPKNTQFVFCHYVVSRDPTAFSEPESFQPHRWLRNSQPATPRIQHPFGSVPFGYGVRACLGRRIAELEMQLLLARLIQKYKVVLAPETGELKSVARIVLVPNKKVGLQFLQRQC
Kind of assay: CYP27A1 enzyme assay. The conditions noted are these: read-out: IC50 in the inhibition of CYP27A1. The format is biochemical.

By IC50 is commonly meant the concentration that inhibits the measured activity by half. With `C=C1/C(=C\C=C2/CCC[C@]3(C)C([C@H](C)C/C=C/C(=NOC)C(C)(C)C)=CC[C@@H]23)C[C@@H](O)C[C@@H]1O` [(20R)-I(e)], the “Inhibition of OVCAR-3 cell proliferation” value in assay [1] was “inhibited”. Further, the IC50 in assay [2] is above 1000 nM.
